Data published in US12599672B2, “KRAS proteolysis targeting chimeras” (PAQ Therapeutics Inc., priority 2023, dated 2026).

Columns and labels:
KRAS G12V = target: T1, KRAS G12V (Homo sapiens, UniProt P01116, G12V); test: KRAS G12V HiBit assay; format: cell-based; conditions: SW620-KRAS (G12V)-HiBit-KI cells, compound treatment for 24 hours, class symbols
T1 construct: SW620-KRAS (G12V)-HiBit-KI cell (Pharmaron); host or cells: SW620-KRAS (G12V)-HiBit-KI cells (HiBiT knock-in at the endogenous KRAS locus)
T1 sequence (P01116 1-188 isoform P01116-2 G12V): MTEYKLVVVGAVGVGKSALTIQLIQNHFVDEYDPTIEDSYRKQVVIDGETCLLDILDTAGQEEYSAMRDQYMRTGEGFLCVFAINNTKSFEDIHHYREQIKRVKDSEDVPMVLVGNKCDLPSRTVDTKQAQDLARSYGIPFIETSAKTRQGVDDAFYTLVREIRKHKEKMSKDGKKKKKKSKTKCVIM
Procedure: Day 1. […] Rinsed cultivated cells in T-75 flasks with 5 mL PBS (Solarbio, P1020-500). […] Inactivated trypsin by adding excessive serum containing medium. Harvested the cells from flask into cell culture medium and counted the cell number.
Day 2. Test compounds were dissolved at 0.3 mM in DMSO (Solarbio, D8371) as stock solution. […] Performed 3-fold, 10-points dilution via transferring 15 μL compound into 30 μL DMSO by using TECAN liquid handler (TECAN, Freedom EVO200). […] After compound treatment for 24 hours, the plate was removed from incubators and equilibrated at room temperature for 15 minutes. Prepare the HiBit reagent (Promega, N3040) by mixing 10 mL of Nano-Glo®-HiBiT Lytic Buffer with 200 μL of Nano-Glo®-HiBiT Lytic Substrate and 100 μL of LgBiT Protein. Added 20 μL of HiBit reagent into each well of the cell plate and spun the plates at room temperature at 1,000 RPM for 1 minute.
The degradation activity was calculated using the following formula:
[formula] where HC (high control) is obtained from cells treated with 0.1% DMSO only.

KRAS G12D = target: T2, KRAS G12D (Homo sapiens, UniProt P01116, G12D); test: KRAS G12D HiBit assay; format: cell-based; conditions: AsPc-1-KRAS (G12D)-HiBit-KI cell, compound treatment for 24 hours, class symbols; for DC50: absolute DC50
T2 construct: AsPc-1-KRAS (G12D)-HiBit-KI cell (Pharmaron); host or cells: AsPc-1-KRAS (G12D)-HiBit-KI cells (HiBiT knock-in at the endogenous KRAS locus)
T2 sequence (P01116 1-188 isoform P01116-2 G12D): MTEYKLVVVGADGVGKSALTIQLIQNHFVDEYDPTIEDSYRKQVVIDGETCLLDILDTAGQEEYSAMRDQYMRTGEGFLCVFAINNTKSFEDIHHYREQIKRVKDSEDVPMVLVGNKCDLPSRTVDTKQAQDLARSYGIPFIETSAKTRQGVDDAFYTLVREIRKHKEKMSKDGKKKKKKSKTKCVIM
Procedure, shortened: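 HiBiT luminescence, detected by adding lytic buffer, substrate and LgBiT protein, served as the KRAS G12D read-out. Compounds, serially diluted 3-fold over 10 points from 0.3 mM DMSO stock, were on cells for 24 h; percent inhibition normalized to cells given 0.1% DMSO only.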

SMILES | DC50 (KRAS G12V) [nM] | DC50 (KRAS G12D) [nM] | Dmax (KRAS G12D) [%]
CCc1c(F)ccc2cccc(-c3ncc4c(N5CCC[C@@](C)(O)C5)nc(OC[C@@]56CCCN5[C@H](COC(=O)N5CCC(CN7CCC(c8ccc9c(c8)n(C)c(=O)n9C8CCC(=O)NC8=O)CC7)CC5)CC6)nc4c3F)c12 (stereo partly drawn) [Compound 94, [(3S,8S)-8-[[7-(8-ethyl-7-fluoro-1-naphthyl)-8-fluoro-4-[(3R)-3-hydroxy-3-methyl-1-piperidyl]pyrido[4,3-d]pyrimidin-2-yl]oxymethyl]-1,2,3,5,6,7-hexahydropyrrolizin-3-yl]methyl-4-[[4-[1-(2,6-dioxo-3-piperidyl)-3-methyl-2-oxo-benzimidazol-5-yl]-1-piperidyl]methyl]piperidine-1-carboxylate] | > 100 | < 100 | > 50
C#Cc1c(F)ccc2cccc(-c3ncc4c(N5CCC[C@@](C)(O)C5)nc(OC[C@@]56CCCN5[C@H](COC(=O)NCCOc5ccc7c(c5)n(C)c(=O)n7C5CCC(=O)NC5=O)CC6)nc4c3F)c12 (stereo partly drawn) [Compound 106, ((3S,7aS)-7a-(((7-(8-ethynyl-7-fluoronaphthalen-1-yl)-8-fluoro-4-((R)-3-hydroxy-3-methylpiperidin-1-yl)pyrido[4,3-d]pyrimidin-2-yl)oxy)methyl)hexahydro-1H-pyrrolizin-3-yl)methyl (2-((1-(2,6-dioxopiperidin-3-yl)-3-methyl-2-oxo-2,3-dihydro-1H-benzo[d]imidazol-5-yl)oxy)ethyl) carbamate] | > 100 | > 300 | < 15

Results, then the compound that gave them:

DC50 (KRAS G12V) [nM] | DC50 (KRAS G12D) [nM] | Dmax (KRAS G12D) [%] | SMILES
> 100 | > 300 | 15 to 50 | CCc1c(F)ccc2cccc(-c3ncc4c(N5CCC[C@@](C)(O)C5)nc(OC[C@@]56CCCN5[C@H](COC(=O)NCCOCCOc5ccc7c(c5)n(C)c(=O)n7C5CCC(=O)NC5=O)CC6)nc4c3F)c12 (stereo partly drawn) [Compound 103, ((3S,7aS)-7a-(((7-(8-ethyl-7-fluoronaphthalen-1-yl)-8-fluoro-4-((R)-3-hydroxy-3-methylpiperidin-1-yl)pyrido[4,3-d]pyrimidin-2-yl)oxy)methyl)hexahydro-1H-pyrrolizin-3-yl)methyl (2-(2-((1-(2,6-dioxopiperidin-3-yl)-3-methyl-2-oxo-2,3-dihydro-1H-benzo[d]imidazol-5-yl)oxy)ethoxy)ethyl) carbamate]
> 100 | > 300 | 15 to 50 | CCc1c(F)ccc2cccc(-c3ncc4c(N5CCC[C@@](C)(O)C5)nc(OC[C@@]56CCCN5[C@H](COC(=O)NCCOCCOCCOc5ccc7c(c5)n(C)c(=O)n7C5CCC(=O)NC5=O)CC6)nc4c3F)c12 (stereo partly drawn) [Compound 104, ((3S,7aS)-7a-(((7-(8-ethyl-7-fluoronaphthalen-1-yl)-8-fluoro-4-((R)-3-hydroxy-3-methylpiperidin-1-yl)pyrido[4,3-d]pyrimidin-2-yl)oxy)methyl)hexahydro-1H-pyrrolizin-3-yl)methyl (2-(2-(2-((1-(2,6-dioxopiperidin-3-yl)-3-methyl-2-oxo-2,3-dihydro-1H-benzo[d]imidazol-5-yl)oxy)ethoxy)ethoxy)ethyl) carbamate]
> 100 | > 300 | 15 to 50 | CCc1c(F)ccc2cccc(-c3ncc4c(N5CCC[C@@](C)(O)C5)nc(OC[C@@]56CCCN5[C@H](COC(=O)NCCOCCOCCOCCOc5ccc7c(c5)n(C)c(=O)n7C5CCC(=O)NC5=O)CC6)nc4c3F)c12 (stereo partly drawn) [Compound 105, ((3S,7aS)-7a-(((7-(8-ethyl-7-fluoronaphthalen-1-yl)-8-fluoro-4-((R)-3-hydroxy-3-methylpiperidin-1-yl)pyrido[4,3-d]pyrimidin-2-yl)oxy)methyl)hexahydro-1H-pyrrolizin-3-yl)methyl (2-(2-(2-(2-((1-(2,6-dioxopiperidin-3-yl)-3-methyl-2-oxo-2,3-dihydro-1H-benzo[d]imidazol-5-yl)oxy)ethoxy)ethoxy)ethoxy)ethyl) carbamate]
